From ChEMBL document CHEMBL5291721, “A preclinical secondary pharmacology resource illuminates target-adverse drug reaction associations of marketed drugs” (Nat Commun, 2023)
Blank lines part the entries; values can stand above or below the molecule they belong to.

Key:
[1] = target: T1, Androgen receptor (Rattus norvegicus, UniProt P15207); type: functional
T1 sequence (P15207 whole entry): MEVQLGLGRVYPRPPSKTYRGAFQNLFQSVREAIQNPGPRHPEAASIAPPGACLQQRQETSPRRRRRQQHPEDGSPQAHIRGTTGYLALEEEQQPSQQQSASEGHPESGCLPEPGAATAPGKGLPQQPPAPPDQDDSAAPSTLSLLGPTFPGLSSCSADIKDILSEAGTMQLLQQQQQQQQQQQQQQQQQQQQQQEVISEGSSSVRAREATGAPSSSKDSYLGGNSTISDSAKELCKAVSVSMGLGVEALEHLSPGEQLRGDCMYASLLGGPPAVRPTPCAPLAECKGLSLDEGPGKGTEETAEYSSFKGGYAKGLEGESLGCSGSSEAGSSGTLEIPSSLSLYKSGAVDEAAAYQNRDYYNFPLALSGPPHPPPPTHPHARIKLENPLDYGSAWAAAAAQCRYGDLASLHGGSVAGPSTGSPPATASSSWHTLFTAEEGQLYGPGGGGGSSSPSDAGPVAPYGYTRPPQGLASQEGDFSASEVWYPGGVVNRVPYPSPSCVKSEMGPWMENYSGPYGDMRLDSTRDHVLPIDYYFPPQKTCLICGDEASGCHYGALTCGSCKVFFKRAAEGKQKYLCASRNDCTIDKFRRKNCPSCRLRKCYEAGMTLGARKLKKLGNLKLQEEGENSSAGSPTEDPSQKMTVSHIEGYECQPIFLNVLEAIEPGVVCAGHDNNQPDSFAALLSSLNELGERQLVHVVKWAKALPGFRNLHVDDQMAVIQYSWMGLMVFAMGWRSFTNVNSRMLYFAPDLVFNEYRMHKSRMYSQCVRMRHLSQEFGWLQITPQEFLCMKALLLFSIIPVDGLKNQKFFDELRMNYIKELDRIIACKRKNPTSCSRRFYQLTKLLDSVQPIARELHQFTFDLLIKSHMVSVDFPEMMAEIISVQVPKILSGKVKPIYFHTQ

[2] = target: T1, Androgen receptor
[3] = target: 5-hydroxytryptamine receptor 2A (Homo sapiens, UniProt P28223)
[4] = target: Neurotensin receptor type 1 (Homo sapiens, UniProt P30989)
[5] = target: T2, Neuropeptide Y receptor type 2 (Homo sapiens, UniProt P49146)
T2 sequence (P49146 whole entry): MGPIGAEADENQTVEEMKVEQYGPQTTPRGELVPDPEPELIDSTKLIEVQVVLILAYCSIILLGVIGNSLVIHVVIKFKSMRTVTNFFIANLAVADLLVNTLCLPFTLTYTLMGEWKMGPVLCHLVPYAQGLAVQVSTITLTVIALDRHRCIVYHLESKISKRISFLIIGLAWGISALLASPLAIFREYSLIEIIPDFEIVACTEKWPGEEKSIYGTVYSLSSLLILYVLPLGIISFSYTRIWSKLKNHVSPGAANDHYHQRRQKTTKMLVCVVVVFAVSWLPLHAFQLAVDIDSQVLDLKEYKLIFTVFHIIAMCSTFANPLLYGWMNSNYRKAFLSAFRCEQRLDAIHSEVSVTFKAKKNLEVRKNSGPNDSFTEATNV

[6] = target: T3, B1 bradykinin receptor (Homo sapiens, UniProt P46663)
T3 sequence (P46663 whole entry): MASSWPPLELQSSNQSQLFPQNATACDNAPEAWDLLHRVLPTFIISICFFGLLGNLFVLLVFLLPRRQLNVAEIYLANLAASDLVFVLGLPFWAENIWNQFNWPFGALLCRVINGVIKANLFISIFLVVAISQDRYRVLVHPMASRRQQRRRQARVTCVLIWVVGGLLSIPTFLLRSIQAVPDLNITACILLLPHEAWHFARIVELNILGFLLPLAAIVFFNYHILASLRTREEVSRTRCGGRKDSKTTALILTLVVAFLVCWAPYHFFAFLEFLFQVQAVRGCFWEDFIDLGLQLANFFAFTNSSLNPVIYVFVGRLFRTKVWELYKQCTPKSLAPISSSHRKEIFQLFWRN

[7] = target: Gamma-aminobutyric acid type B receptor subunit 1 (Homo sapiens, UniProt Q9UBS5)
[8] = target: T4, Type-2 angiotensin II receptor (Homo sapiens, UniProt P50052); type: functional
T4 sequence (P50052 whole entry): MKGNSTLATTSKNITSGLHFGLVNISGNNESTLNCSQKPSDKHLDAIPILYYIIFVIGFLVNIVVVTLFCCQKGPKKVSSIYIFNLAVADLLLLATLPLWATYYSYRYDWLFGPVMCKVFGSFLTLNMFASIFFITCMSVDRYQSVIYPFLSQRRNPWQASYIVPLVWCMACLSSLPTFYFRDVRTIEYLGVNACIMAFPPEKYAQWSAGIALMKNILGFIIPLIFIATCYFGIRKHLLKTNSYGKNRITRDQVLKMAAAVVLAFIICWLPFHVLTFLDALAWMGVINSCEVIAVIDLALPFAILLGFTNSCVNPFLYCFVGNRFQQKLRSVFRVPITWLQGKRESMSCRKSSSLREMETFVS

[9] = target: T5, Glucocorticoid receptor (Homo sapiens, UniProt P04150); type: functional
T5 sequence (P04150 whole entry): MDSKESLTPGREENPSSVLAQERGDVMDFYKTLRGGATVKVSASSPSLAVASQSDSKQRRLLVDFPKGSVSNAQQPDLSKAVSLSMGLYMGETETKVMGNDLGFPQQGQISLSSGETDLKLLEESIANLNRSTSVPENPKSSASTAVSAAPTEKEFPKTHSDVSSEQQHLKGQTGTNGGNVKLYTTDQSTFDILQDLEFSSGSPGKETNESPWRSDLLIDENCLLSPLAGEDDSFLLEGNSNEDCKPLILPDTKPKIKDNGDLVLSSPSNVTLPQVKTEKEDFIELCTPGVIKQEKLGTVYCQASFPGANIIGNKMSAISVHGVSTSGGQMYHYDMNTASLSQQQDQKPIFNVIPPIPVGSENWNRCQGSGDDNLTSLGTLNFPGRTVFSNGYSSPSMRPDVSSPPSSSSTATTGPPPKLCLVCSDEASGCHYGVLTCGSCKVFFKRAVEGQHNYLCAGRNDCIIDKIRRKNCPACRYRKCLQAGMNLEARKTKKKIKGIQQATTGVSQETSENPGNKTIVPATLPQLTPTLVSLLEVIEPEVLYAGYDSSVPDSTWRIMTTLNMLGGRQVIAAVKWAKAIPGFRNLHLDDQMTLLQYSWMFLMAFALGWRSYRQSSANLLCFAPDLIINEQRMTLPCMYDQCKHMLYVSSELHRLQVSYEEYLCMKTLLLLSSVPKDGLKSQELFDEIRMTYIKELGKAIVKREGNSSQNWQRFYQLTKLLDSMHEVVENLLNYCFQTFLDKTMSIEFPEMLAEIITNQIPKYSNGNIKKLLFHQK
Also: assay procedure not described here.

Chain of 5-hydroxytryptamine receptor 2A (P28223 whole entry): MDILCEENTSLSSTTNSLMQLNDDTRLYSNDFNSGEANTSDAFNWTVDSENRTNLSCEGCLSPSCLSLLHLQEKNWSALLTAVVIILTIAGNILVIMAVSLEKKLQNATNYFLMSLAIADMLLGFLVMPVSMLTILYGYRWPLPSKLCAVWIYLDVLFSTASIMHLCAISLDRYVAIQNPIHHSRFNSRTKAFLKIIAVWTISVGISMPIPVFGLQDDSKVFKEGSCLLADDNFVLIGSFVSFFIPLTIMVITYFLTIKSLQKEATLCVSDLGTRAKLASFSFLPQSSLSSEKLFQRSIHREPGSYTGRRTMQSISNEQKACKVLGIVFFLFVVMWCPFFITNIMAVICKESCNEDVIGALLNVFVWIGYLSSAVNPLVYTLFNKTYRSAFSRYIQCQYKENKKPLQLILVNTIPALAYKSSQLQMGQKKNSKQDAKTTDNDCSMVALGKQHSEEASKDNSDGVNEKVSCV
Chain of Gamma-aminobutyric acid type B receptor subunit 1 (Q9UBS5 whole entry): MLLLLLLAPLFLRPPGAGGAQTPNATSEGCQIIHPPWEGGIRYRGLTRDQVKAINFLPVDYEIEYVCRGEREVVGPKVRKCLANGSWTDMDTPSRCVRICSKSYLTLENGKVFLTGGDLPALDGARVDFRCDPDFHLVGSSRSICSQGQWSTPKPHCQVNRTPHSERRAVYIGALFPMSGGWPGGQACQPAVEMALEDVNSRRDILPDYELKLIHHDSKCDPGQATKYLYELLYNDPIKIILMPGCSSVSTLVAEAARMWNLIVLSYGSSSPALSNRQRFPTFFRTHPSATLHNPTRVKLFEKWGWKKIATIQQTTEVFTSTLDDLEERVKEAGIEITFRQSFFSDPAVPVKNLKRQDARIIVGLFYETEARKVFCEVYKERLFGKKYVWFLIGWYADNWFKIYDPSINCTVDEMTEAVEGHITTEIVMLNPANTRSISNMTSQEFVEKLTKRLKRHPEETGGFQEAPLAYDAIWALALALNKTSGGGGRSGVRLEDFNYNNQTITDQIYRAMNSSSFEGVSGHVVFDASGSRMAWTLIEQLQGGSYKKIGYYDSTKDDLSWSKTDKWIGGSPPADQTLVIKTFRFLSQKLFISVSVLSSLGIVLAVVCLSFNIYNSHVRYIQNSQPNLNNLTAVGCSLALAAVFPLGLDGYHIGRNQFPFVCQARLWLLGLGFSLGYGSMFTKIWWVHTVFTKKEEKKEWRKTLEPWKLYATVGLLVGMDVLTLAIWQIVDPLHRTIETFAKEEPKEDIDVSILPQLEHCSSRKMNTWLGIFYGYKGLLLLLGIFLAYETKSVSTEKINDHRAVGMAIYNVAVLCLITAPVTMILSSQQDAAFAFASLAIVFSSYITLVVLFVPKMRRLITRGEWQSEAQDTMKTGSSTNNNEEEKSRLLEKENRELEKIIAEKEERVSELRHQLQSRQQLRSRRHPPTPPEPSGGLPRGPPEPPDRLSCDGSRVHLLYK
Chain of Neurotensin receptor type 1 (P30989 whole entry): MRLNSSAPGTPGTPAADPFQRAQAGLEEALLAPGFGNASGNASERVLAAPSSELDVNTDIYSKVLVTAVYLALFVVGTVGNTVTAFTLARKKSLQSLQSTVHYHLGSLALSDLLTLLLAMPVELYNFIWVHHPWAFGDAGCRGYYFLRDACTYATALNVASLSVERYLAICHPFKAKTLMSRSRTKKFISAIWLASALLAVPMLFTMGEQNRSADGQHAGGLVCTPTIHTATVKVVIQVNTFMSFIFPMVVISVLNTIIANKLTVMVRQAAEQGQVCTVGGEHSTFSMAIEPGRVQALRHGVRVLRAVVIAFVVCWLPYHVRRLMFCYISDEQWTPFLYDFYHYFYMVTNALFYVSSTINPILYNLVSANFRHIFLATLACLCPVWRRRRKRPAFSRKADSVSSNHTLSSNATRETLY

AC50 [1]: > 30 µM
Compound: CC(C)(Oc1ccc(Cl)cc1)C(=O)OCCOC(=O)c1cccnc1 [ETOFIBRATE]

AC50 [2]: 4.35 µM
Compound: CN(C)[C@@H]1C(O)=C(C(=O)NCN2CCCC2)C(=O)[C@@]2(O)C(O)=C3C(=O)c4c(O)cccc4[C@@](C)(O)[C@H]3C[C@@H]12 [ROLITETRACYCLINE]

AC50 [2]: > 30 µM
AC50 [3]: 0.0233 µM
Compound: CCC(=O)c1ccc2c(c1)N(CC(C)N(C)C)c1ccccc1S2 (stereo not drawn) [PROPIOMAZINE]

AC50 [4]: > 30 µM
AC50 [5]: > 30 µM
AC50 [6]: > 30 µM
Compound: C[C@]12C=CC(=O)C=C1CC[C@@H]1[C@@H]2[C@@H](O)C[C@@]2(C)[C@H]1CC[C@]2(O)C(=O)CO [PREDNISOLONE]

Compound: Cc1ccc(O)c([C@H](CCN(C(C)C)C(C)C)c2ccccc2)c1 [TOLTERODINE]
AC50 [7]: > 10 µM
AC50 [3]: 8.84 µM

AC50 [1]: > 30 µM
Compound: C[C@]12C=CC(=O)C=C1C(Cl)=C[C@@H]1[C@@H]2[C@@H](O)C[C@@]2(C)[C@H]1CC[C@]2(O)C(=O)CO [CLOPREDNOL]

Compound: N=C(N)NC(=O)c1nc(Cl)c(N)nc1N [AMILORIDE]
AC50 [4]: > 30 µM
AC50 [5]: > 30 µM
AC50 [6]: > 10 µM
AC50 [7]: > 10 µM
AC50 [8]: > 100 µM

Compound: CC(C)Cc1ccc(C(C)C(=O)OCc2ccccn2)cc1 (stereo not drawn) [IBUPROFEN PICONOL]
AC50 [8]: > 100 µM

AC50 [9]: 0.0039 µM
Compound: CC1(C)O[C@@H]2C[C@H]3[C@@H]4CCC5=CC(=O)C=C[C@]5(C)[C@@]4(F)[C@@H](O)C[C@]3(C)[C@]2(C(=O)CO)O1 [TRIAMCINOLONE ACETONIDE]

Compound: COc1cccc2c1C(=O)c1c(O)c3c(c(O)c1C2=O)C[C@@](O)(C(=O)CO)C[C@@H]3O[C@H]1C[C@H](N)[C@H](O)[C@H](C)O1 [DOXORUBICIN]
AC50 [9]: 11 µM
